We go through 24 compounds from patent US10543212B2, “Substituted amines for treating cardiac diseases” (Cardurion Pharmaceuticals, LLC, priority 2017, dated 2020).

Structures are written as SMILES.

The target of one test is T1, Full-length, GST-tagged, human CaMKIIδ (Homo sapiens, UniProt Q13557).
T1 construct: Full-Length, Glutathione-S-Transferase(GST)-Tagged, Human CaMKIIδ was purchased from Carna Biosciences; purchased Carna Biosciences 02-111
T1 sequence (Q13557 1-478 isoform Q13557-12): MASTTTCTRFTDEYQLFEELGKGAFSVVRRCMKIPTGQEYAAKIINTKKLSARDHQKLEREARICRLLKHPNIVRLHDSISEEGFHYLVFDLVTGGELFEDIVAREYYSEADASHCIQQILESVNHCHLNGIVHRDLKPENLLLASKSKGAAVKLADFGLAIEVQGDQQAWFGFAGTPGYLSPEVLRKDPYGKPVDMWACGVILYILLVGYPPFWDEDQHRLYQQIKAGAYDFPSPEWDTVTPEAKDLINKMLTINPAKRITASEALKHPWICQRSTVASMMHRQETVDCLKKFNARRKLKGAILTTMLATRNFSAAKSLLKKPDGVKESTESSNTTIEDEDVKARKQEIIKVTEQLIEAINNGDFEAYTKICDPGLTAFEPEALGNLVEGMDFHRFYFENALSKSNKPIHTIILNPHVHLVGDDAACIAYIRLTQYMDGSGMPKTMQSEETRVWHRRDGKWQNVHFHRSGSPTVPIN
Put plainly: CaMKIIδ binding assay (TR-FRET with BODIPY-labeled probe ligand). Particulars: CaMKIIδ binding assay, results of Table 2. The method, boiled down:
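Compounds were tested as 4-fold, eight-point series for 1 hr at room temperature, and IC50 was obtained by logistic fitting against a 3 μM parent-compound control. Signal came from displacement of a 300 nM BODIPY ligand from 0.5 nM GST-CaMKIIδ, detected via Tb-anti-GST in calmodulin/Ca2+ (pH 7.6).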
(Time-resolved FRET reads energy transfer from a long-lived donor to a nearby acceptor.)
In general, IC50 refers to the concentration that gives 50% inhibition. Low readings indicate inhibition by little substance, high ones a need for much substance. Turning to `COc1ccc(N2CCNCC2)cc1Nc1ncc(-c2ccc(Cl)c(O[C@@H](C)Cn3cnnn3)c2)cn1` [Example 533, (S)-5-(3-((1-(1H-tetrazol-1-yl)propan-2-yl)oxy)-4-chlorophenyl)-N-(2-methoxy-5-(piperazin-1-yl)phenyl)pyrimidin-2-amine], the IC50 is less than 10 nM. On to `COc1ccc(N2CCN(C3COC3)CC2)cc1Nc1ncc(-c2ccc(Cl)c(O[C@@H](C)Cn3cnnn3)c2)cn1` [Example 576, (S)-5-(3-((1-(1H-tetrazol-1-yl)propan-2-yl)oxy)-4-chlorophenyl)-N-(2-methoxy-5-(4-(oxetan-3-yl)piperazin-1-yl)phenyl)pyrimidin-2-amine], for which the half-inhibitory concentration (IC50) lay within 10 to 100 nM.

`C[C@@H](Cn1cnnn1)Oc1cc(-c2cnc(Nc3cc(N4CCC(N5CCOCC5)CC4)ccc3F)nc2)ccc1Cl` [Example 580, (S)-5-(3-((1-(1H-tetrazol-1-yl)propan-2-yl)oxy)-4-chlorophenyl)-N-(2-fluoro-5-(4-morpholinopiperidin-1-yl)phenyl)pyrimidin-2-amine] returned an IC50 of less than 10 nM. Same read-out and setting: as for `COC1CCC(N2CCC(n3cc(Nc4ncc(-c5ccc(Cl)c(OC(C)Cn6cnnn6)c5)cn4)c(C(F)(F)F)n3)CC2)CC1` (single isomer, unassigned; less polar) [Example 568, (S)-5-(3-((1-(1H-tetrazol-1-yl)propan-2-yl)oxy)-4-chlorophenyl)-N-(1-(1-(cis or trans-4-methoxycyclohexyl)piperidin-4-yl)-3-(trifluoromethyl)-1H-pyrazol-4-yl)pyrimidin-2-amine, less polar], the figure is less than 10 nM.

The test is the same for the next values; noted with them: CaMKIIδ binding assay; activity class per Table 2.
As to `C[C@@H](Cn1cnnn1)Oc1cc(-c2cnc(Nc3cn(CC4(O)CCOCC4)nc3OCC(F)(F)F)nc2)ccc1Cl` [Example 886, (S)-4-((4-((5-(3-((1-(1H-tetrazol-1-yl)propan-2-yl)oxy)-4-chlorophenyl)pyrimidin-2-yl)amino)-3-(2,2,2-trifluoroethoxy)-1H-pyrazol-1-yl)methyl)tetrahydro-2H-pyran-4-ol], the IC50 is less than 10 nM. Still for that read-out and setting: as for `CCC1(N2CC3(CC(n4cc(Nc5ncc(-c6ccc(Cl)c(O[C@@H](C)Cn7cnnn7)c6)cn5)c(OCC(F)(F)F)n4)C3)C2)CCOCC1` [Example 955, (S)-5-(3-((1-(1H-tetrazol-1-yl)propan-2-yl)oxy)-4-chlorophenyl)-N-(1-(2-(4-ethyltetrahydro-2H-pyran-4-yl)-2-azaspiro[3.3]heptan-6-yl)-3-(2,2,2-trifluoroethoxy)-1H-pyrazol-4-yl)pyrimidin-2-amine], the figure is less than 10 nM. With `CCC1(N2CC3(CC(n4cc(Nc5ncc(-c6ccc(Cl)c(O[C@@H](C)Cn7cnnn7)c6)cn5)c(C(C)C)n4)C3)C2)CCOCC1` [Example 953, (S)-5-(3-((1-(1H-tetrazol-1-yl)propan-2-yl)oxy)-4-chlorophenyl)-N-(1-(2-(4-ethyltetrahydro-2H-pyran-4-yl)-2-azaspiro[3.3]heptan-6-yl)-3-isopropyl-1H-pyrazol-4-yl)pyrimidin-2-amine], the IC50 is less than 10 nM.

Staying with this test, now noted: Table 2; CaMKIIδ binding assay, activity given as class A/B/C.
Regarding `C[C@@H](Cn1cnnn1)Oc1cc(-c2cnc(Nc3cn([C@H]4CC[C@@H](N5CC6(COC6)C5)CC4)nc3OCC(F)F)nc2)ccc1Cl` [Example 828, 5-(3-(((S)-1-(1H-tetrazol-1-yl)propan-2-yl)oxy)-4-chlorophenyl)-N-(1-(cis-4-(2-oxa-6-azaspiro[3.3]heptan-6-yl)cyclohexyl)-3-(2,2-difluoroethoxy)-1H-pyrazol-4-yl)pyrimidin-2-amine], the IC50 is less than 10 nM.

Turning to `C[C@@H](Cn1cnnn1)Oc1cc(-c2cnc(Nc3cn(C4CCN(C5CCOCC5)CC4)nc3C(F)F)nc2)ccc1Cl` [Example 769, (S)-5-(3-((1-(1H-tetrazol-1-yl)propan-2-yl)oxy)-4-chlorophenyl)-N-(3-(difluoromethyl)-1-(1-(tetrahydro-2H-pyran-4-yl)piperidin-4-yl)-1H-pyrazol-4-yl)pyrimidin-2-amine], the IC50 is less than 10 nM. The same measure, in the same setting: then `C[C@@H](Cn1cnnn1)Oc1cc(-c2cnc(Nc3cn(C4CCN(C5CCOCC5)CC4)nc3OCC(F)(F)F)nc2)ccc1C#N` [Example 790, (S)-2-((1-(1H-tetrazol-1-yl)propan-2-yl)oxy)-4-(2-((1-(1-(tetrahydro-2H-pyran-4-yl)piperidin-4-yl)-3-(2,2,2-trifluoroethoxy)-1H-pyrazol-4-yl)amino)pyrimidin-5-yl)benzonitrile], with less than 10 nM. On to `C[C@@H](Cn1cnnn1)Oc1cc(-c2cnc(Nc3cn(C4CCCCO4)nc3OCC(F)(F)F)nc2)ccc1C#N` (stereo partly drawn) [Example 763, 2-(((S)-1-(1H-tetrazol-1-yl)propan-2-yl)oxy)-4-(2-((1-(tetrahydro-2H-pyran-2-yl)-3-(2,2,2-trifluoroethoxy)-1H-pyrazol-4-yl)amino)pyrimidin-5-yl)benzonitrile], for which the IC50 was less than 10 nM.

`C[C@@H](Cn1cnnn1)Oc1cc(-c2cnc(Nc3cn([C@@H](C)C(=O)N4CCOCC4)nc3C(F)(F)F)nc2)ccc1Cl` [Example 761, (S)-2-(4-((5-(3-(((S)-1-(1H-tetrazol-1-yl)propan-2-yl)oxy)-4-chlorophenyl)pyrimidin-2-yl)amino)-3-(trifluoromethyl)-1H-pyrazol-1-yl)-1-morpholinopropan-1-one]: the IC50 fell in the range of 10 to 100 nM.

Compound `CC(O)Cn1cc(Nc2ncc(-c3ccc(Cl)c(O[C@@H](C)Cn4cnnn4)c3)cn2)c(OCC(F)(F)F)n1` (stereo partly drawn) [Example 799, 1-(4-((5-(3-(((S)-1-(1H-tetrazol-1-yl)propan-2-yl)oxy)-4-chlorophenyl)pyrimidin-2-yl)amino)-3-(2,2,2-trifluoroethoxy)-1H-pyrazol-1-yl)propan-2-ol] returned a 50% inhibitory concentration (IC50) of less than 10 nM. In turn, `CC(C)c1nn([C@H]2CC[C@@H](N3CCOCC3)CC2)cc1Nc1ncc(-c2ccc(Cl)c(O[C@@H](C)Cn3cnnn3)c2)cn1` [Example 842, 5-(3-(((S)-1-(1H-tetrazol-1-yl)propan-2-yl)oxy)-4-chlorophenyl)-N-(3-isopropyl-1-(cis-4-morpholinocyclohexyl)-1H-pyrazol-4-yl)pyrimidin-2-amine] displayed a half-maximal inhibitory concentration (IC50) of less than 10 nM. Consider `C[C@@H](Cn1cnnn1)Oc1cc(-c2cnc(Nc3cn([C@H]4CC[C@@H](N5CCOCC5)CC4)nc3OC3COC3)nc2)ccc1Cl` [Example 820, 5-(3-(((S)-1-(1H-tetrazol-1-yl)propan-2-yl)oxy)-4-chlorophenyl)-N-(1-(cis-4-morpholinocyclohexyl)-3-(oxetan-3-yloxy)-1H-pyrazol-4-yl)pyrimidin-2-amine], for which the IC50 is less than 10 nM. For the compound `C[C@@H](Cn1cnnn1)Oc1cc(-c2cnc(Nc3cn([C@H]4CC[C@H](N5CCC(F)(F)C5)CC4)nc3OC3COC3)nc2)ccc1Cl` [Example 864, 5-(3-(((S)-1-(1H-tetrazol-1-yl)propan-2-yl)oxy)-4-chlorophenyl)-N-(1-(trans-4-(3,3-difluoropyrrolidin-1-yl)cyclohexyl)-3-(oxetan-3-yloxy)-1H-pyrazol-4-yl)pyrimidin-2-amine], the IC50 was less than 10 nM.

The test is the same for the next values; noted with them: Table 2; activity class for CaMKIIδ.
For `C[C@@H](Cn1cnnn1)Oc1cc(-c2cnc(Nc3cn(C4CCSCC4)nc3C(F)(F)F)nc2)ccc1Cl` [Example 663, (S)-5-(3-((1-(1H-tetrazol-1-yl)propan-2-yl)oxy)-4-chlorophenyl)-N-(1-(tetrahydro-2H-thiopyran-4-yl)-3-(trifluoromethyl)-1H-pyrazol-4-yl)pyrimidin-2-amine], the half-inhibitory concentration (IC50) fell in the range of 10 to 100 nM. Same read-out and setting: as for `C[C@@H](Cn1cnnn1)Oc1cc(-c2cnc(Nc3cnn(CC4CC4)c3)nc2)ccc1Cl` [Example 725, (S)-5-(3-((1-(1H-tetrazol-1-yl)propan-2-yl)oxy)-4-chlorophenyl)-N-(1-(cyclopropylmethyl)-1H-pyrazol-4-yl)pyrimidin-2-amine], the figure is 10 to 100 nM. For `CCn1cc(Nc2ncc(-c3ccc(Cl)c(O[C@@H](C)Cn4cnnn4)c3)cn2)c(N2CCCC2)n1` [Example 669, (S)-5-(3-((1-(1H-tetrazol-1-yl)propan-2-yl)oxy)-4-chlorophenyl)-N-(1-ethyl-3-(pyrrolidin-1-yl)-1H-pyrazol-4-yl)pyrimidin-2-amine], the 50% inhibitory concentration (IC50) was 10 to 100 nM. On the same count and under the same terms, as for `COc1cc(N2CCNCC2)cnc1Nc1ncc(-c2ccc(Cl)c(O[C@@H](C)Cn3cnnn3)c2)cn1` [Example 621, (S)-5-(3-((1-(1H-tetrazol-1-yl)propan-2-yl)oxy)-4-chlorophenyl)-N-(3-methoxy-5-(piperazin-1-yl)pyridin-2-yl)pyrimidin-2-amine], the figure is 10 to 100 nM; as for `COc1nn(C2CCN(C(=O)OC(C)(C)C)CC2)cc1Nc1ncc(-c2ccc(Cl)c(O[C@@H](C)Cn3cnnn3)c2)cn1` [Example 646, tert-butyl (S)-4-(4-((5-(3-((1-(1H-tetrazol-1-yl)propan-2-yl)oxy)-4-chlorophenyl)pyrimidin-2-yl)amino)-3-methoxy-1H-pyrazol-1-yl)piperidine-1-carboxylate], 10 to 100 nM; as for `C[C@@H](Cn1cnnn1)Oc1cc(-c2cnc(Nc3cn(C4CCNCC4)nc3OCC(F)(F)F)nc2)ccc1Cl` [Example 676, (S)-5-(3-((1-(1H-tetrazol-1-yl)propan-2-yl)oxy)-4-chlorophenyl)-N-(1-(piperidin-4-yl)-3-(2,2,2-trifluoroethoxy)-1H-pyrazol-4-yl)pyrimidin-2-amine], less than 10 nM. Still for that read-out and setting: then `COCCn1nc(C)cc1Nc1ncc(-c2ccc(Cl)c(O[C@@H](C)Cn3cnnn3)c2)cn1` [Example 655, (S)-5-(3-((1-(1H-tetrazol-1-yl)propan-2-yl)oxy)-4-chlorophenyl)-N-(1-(2-methoxyethyl)-3-methyl-1H-pyrazol-5-yl)pyrimidin-2-amine], with no less than 100 nM; and `CCn1cc(Nc2ncc(-c3ccc(Cl)c(O[C@@H](C)Cn4cnnn4)c3)cn2)c(C(F)(F)F)n1` [Example 674, (S)-5-(3-((1-(1H-tetrazol-1-yl)propan-2-yl)oxy)-4-chlorophenyl)-N-(1-ethyl-3-(trifluoromethyl)-1H-pyrazol-4-yl)pyrimidin-2-amine], with 10 to 100 nM.
